Assay results reported in PubChem BioAssay AID1645848.
≈ marks a conversion by molar mass, not a printed value.

Details: buffer; pH 7.4; 6.0 h; 150.0 µM

solubility kinetic [µg/mL]	SMILES
> 36	CC1(C)C(=O)NC2=C1C(=O)C(=O)c1ccccc12
< 1	CCCCCN(CCC12CC3CC(CC(C3)C1)C2)C(=O)NCCCc1ccncc1
2.15 (≈ 6.32 µM)	Cn1c(=O)c2c(nc(Cl)n2Cc2ccc(Cl)cc2)n(C)c1=O
3.5 (≈ 6.32 µM)	CNC(=O)c1cc(Oc2ccc(NC(=O)Nc3cc(C(C)(C)C)nn3-c3ccc4ncccc4c3)c(F)c2)ccn1
10.8 (≈ 24.6 µM)	CCOC(=O)C1CCN(C(=O)C(C)(C)NC(=O)Nc2ccc(-c3ccccc3)cc2)CC1
< 1	Cc1ccc(-c2cc(C(=O)Nc3ccc(S(=O)(=O)N(C)C)cc3)c3ccccc3n2)cc1C
< 1	COC(=O)c1ccccc1NC(=O)c1ccccc1OC(F)F
> 44	Cc1ccccc1C(=O)N1CCC(C(=O)N2CCC(N3Cc4ccccc4C3=O)CC2)CC1
0.487 (≈ 0.925 µM)	Cc1ccc(S(=O)(=O)Nc2cnccc2C(=O)Nc2nc(-c3ccc(-c4ccccc4)cc3)cs2)cc1
> 63	Cc1cc(NS(=O)(=O)c2ccc(NC(=O)Cc3ccc(F)c(Cl)c3)cc2)no1
37.7 (≈ 109 µM)	Cc1cccc(-n2cnc3cc(C(=O)N4CCCC(C)(C)C4)ccc32)c1
< 1	O=c1n(-c2ccc(Cl)cc2)nc2n1CCN(Cc1ccc(C(F)(F)F)cc1)C2
5.52 (≈ 16.2 µM)	COc1ccc(-c2cc(-c3cccc4[nH]ncc34)cn3cncc23)cn1
11.4 (≈ 26.9 µM)	Cc1cc(NS(=O)(=O)c2ccc(NCCc3ccc(Cl)c(Cl)c3)cc2)no1
< 1	Cc1ccc(S(=O)(=O)Nc2ccccc2C(=O)Nc2cccc(-c3ccccc3)c2)cc1
13 (≈ 32.7 µM)	COc1ccnc(NC(=S)N2CCN(c3cccc(C(F)(F)F)c3)CC2)c1
26.4 (≈ 55.5 µM)	COc1ccc(NC(=O)c2cccnc2C)cc1S(=O)(=O)Nc1ccc(Br)cc1
> 100	O=c1ncn2nc(Sc3ccc(F)cc3F)ccc2c1-c1c(Cl)cccc1Cl
26.8 (≈ 75.9 µM)	CCOc1ccccc1C(=O)NC1CCN(c2cc(C)cc(C)c2)C1=O (stereo not given)
> 62	Cc1ccc(S(=O)(=O)Nc2cnccc2C(=O)Nc2nc(C(=O)O)cs2)cc1
< 1	O=C(Nc1ccc(S(=O)(=O)Nc2nccs2)cc1)c1ccc(-c2ccccc2)cc1
21.2 (≈ 48.5 µM)	O=C(Nc1nc(-c2ccccc2)cs1)c1ccncc1NS(=O)(=O)c1ccccc1
7.21 (≈ 18.2 µM)	Cc1cc(C)nc(NC(=S)N2CCN(c3nccc(C(F)(F)F)n3)CC2)c1
2.94 (≈ 6.79 µM)	O=C(Nc1ncc([S+](=O)([O-])N2CCOCC2)s1)c1cccc(Br)c1

solubility kinetic [µg/mL]	SMILES
< 1	Cc1ccc(/C=C/c2nc3ccccc3n2S(=O)(=O)c2cccc(Cl)c2)cc1
< 1	CC(=O)c1c(C)oc2ccc(N(C(=O)Oc3ccccc3)S(=O)(=O)c3ccccc3)cc12
10.9 (≈ 32.8 µM)	NC(=O)c1ccc(-c2ncc3cnc(-c4cccc(F)c4)cn23)cc1
> 57	COC(=O)CNC(=O)c1nc(-c2ccc([S+](C)(=O)[O-])cc2)c2cnccn12
36 (≈ 111 µM)	CCc1ccccc1OC[C@@H](O)CN[C@H]1CCCc2ccccc21
9.92 (≈ 39.6 µM)	O=C1Nc2cc(Cl)ccc2Nc2cscc21
8.07 (≈ 21.2 µM)	Cc1ccnc(NC(=S)N2CCN(c3ccccc3C(F)(F)F)CC2)c1
> 55	COc1cc(OC)c2c(=O)[nH]c(-c3cc(C)c(OCCO)c(C)c3)nc2c1
17.9 (≈ 58 µM)	C[C@@]1(c2ncncc2F)NC(=O)c2cc(-c3cn[nH]c3)ccc21
15.6 (≈ 35.8 µM)	O=C(Nc1ccc(S(=O)(=O)Nc2nccs2)cc1)c1ccnc(-c2ccccc2)c1
32.7 (≈ 80.1 µM)	O=C(O)c1cccc(-n2cccc2/C=C2/NC(=O)N(c3cccc(Cl)c3)C2=O)c1
26 (≈ 78.4 µM)	CN(C)CCOC1=Cc2ccccc2Sc2ccc(Cl)cc21
> 58	O=C1Nc2ccccc2/C1=C\c1cc(Br)c(O)c(Br)c1
> 100	O=C(Cc1ccc(Cl)c(Cl)c1)Nc1ccc(S(=O)(=O)Nc2ccon2)cc1
< 1	CCc1cccc(-n2nnc(-c3nsc(NC(=O)c4cccc(OC)c4)n3)c2C)c1
4.65 (≈ 15.2 µM)	NC(=O)C1CCN(c2nc(-c3ccccc3F)cs2)CC1
3.67 (≈ 10.9 µM)	NC(=O)C1CCN(c2nc(-c3ccc4ccccc4c3)cs2)CC1
> 47	Cc1cccc(-n2cnc3cc(C(=O)N4CCCCC4)ccc32)c1
11 (≈ 23.2 µM)	CC(C)(O)CNc1nc(Nc2ccnc(C(F)(F)F)c2)nc(-c2cccc(C(F)(F)F)n2)n1
2.48 (≈ 5.43 µM)	O=C(NCc1ccccc1)C1CCN(c2nc(-c3ccc(Br)cc3)cs2)CC1
< 1	Cc1ccc(S(=O)(=O)Nc2ccccc2C(=O)Nc2ccc(-c3ccccc3)cn2)cc1
1.14 (≈ 2.95 µM)	COc1ccc(C(=O)NC2CCCc3c2[nH]c2c(Cl)cccc32)cc1OC (stereo not given)
> 38	C[C@@]1(O)[C@H](O)[C@@H](CO)O[C@H]1n1ccc(N)nc1=O
> 58	COc1cccc(CNc2ccc(S(=O)(=O)Nc3cc(C)on3)cc2)c1O

SMILES	solubility kinetic [µg/mL]
CN1CCc2cc3c(cc2C1)OCO3	> 28
N#Cc1cccc(NC(=O)c2sc3nc4c(cc3c2N)N2CCC4CC2)c1	5.07 (≈ 13.5 µM)
